Here are results for one molecule from patent publication US11998549B2, “Methods of treating a vascular leakage-associated disease or disorder” (UNITY HEALTH TORONTO, priority 2019, dated 2024).

For assay [1], the system named is LPS-induced ROS production. Nature of the assay: ROS production (DCFH-DA) in LPS-treated zebrafish larvae. Type of assay: in vivo. Conditions: LPS 100 μg/ml + 1 μM UNC0642, 5 h. Here is the method: ROS production was visualised using 2′, 7′-dichlorodihydrofluorescein diacetate (DCFH-DA; Sigma-Aldrich), a ROS indicator. Wildtype zebrafish were exposed to Vehicle, LPS (100 μg/ml) or LPS+1 μM UNC0642 by static immersion for 5 h at 28.5° C. and then incubated along with 100 μM DCFH-DA for 1 h at 28.5° C. in the dark, and washed three times (5 min each) with embryo water. DCFH-DA diffuses into cells and is deacetylated by cellular esterases to non-fluorescent 2′, 7′-Dichlorodihydrofluorescin (DCFH), which is rapidly oxidized to highly fluorescent 2′, 7′-Dichlorofluorescein (DCF) by ROS. The fluorescence intensity is propor-tional to the ROS levels within the cell cytosol. Photographs were acquired using a Leica DFC 300-FX camera and a Leica fluorescence microscope, and were processed with Fiji analysis software. Corrected total fluorescence (CTF) was calculated using the following formula: CTF=Integrated density−(Area of selected cell×Mean fluorescence of background readings) H3K9me2 Immunofluorescence Analysis

For assay [2], the system named is human pulmonary microvascular endothelial cells (HPMECs). Nature of the assay: FITC dextran permeability assay in HPMEC monolayer. Conditions: FITC-conjugated dextran. Type of assay: cell-based. The source says:
Cultured endothelial cells are used to model the microvascular endothelium, because of the feasibility of performing complex molecular or pharmacological experiments to study cellular signalling pathways related to barrier function and integrity. In addition, the lung is the organ most often affected by sepsis induced-MODS. To determine the functional significance of G9a inhibition in human cells, solute permeability and electrical resistance across a confluent human pulmonary microvascular endothelial cell (HPMEC) monolayer was assessed. For both experiments HPMECs were seeded on 0.4 μm-pore polyester transwells (Costar) coated with Attachment Factor (Invitrogen), grown to confluency, and then […] with either UNC0462 or vehicle control.
FITC fluorescence was be measured at different time intervals in samples taken from the bottom compartment as a measure of paracellular dextran leak.

For assay [3], the system named is H3K9me2 in venous endothelial cell nuclei. The experiment in a line: H3K9me2 immunofluorescence in zebrafish larvae. Type of assay: in vivo. The note with it: LPS 100 μg/ml + 1 μM UNC0642, 5 h. Here is the method:
3 dpf Tg eGFP) larvae were exposed to Vehicle, LPS (100 μg/ml) or LPS+1 μM UNC0642 by static immersion for 5 h at 28.5° C. Embryos were fixed overnight at 4° C. in 2% PFA in PBST (PBS+0.1% Tween 20). Embryos were then washed 4×5 min in PBST at room temperature (RT) and permeabilized for 30 min at RT in PBST+0.5% TritonX-100. Embryos were then blocked in PBST+0.1% TritonX-100+10% NGS+1% BSA for 2 h at RT. Embryos were incubated with primary antibodies (Mouse monoclonal (mAbcam 1220) to Histone H3 (di-methyl K9) in blocking solution (1:200) overnight at 4° C. Embryos were then washed 6×20 min in PBST at RT and then incubated with the secondary antibody (Goat anti-mouse IgG Alexa fluor 647; 1:1000) in blocking solution for 2 h at RT. Embryos were finally washed 3×10 min in PBST at RT. Images were taken with a Zeiss Confocal Microscope.

Assay [4] concerns IL-1, IL-6, TNFα and IL811 transcript levels. The experiment in a line: Quantitative RT-PCR of pro-inflammatory cytokines in zebrafish sepsis model. Conditions: 3 dpf larvae, LPS 27 μg/ml (Salmonella) + 1 μM UNC0642, 24 h. In kind it is in vivo. The source says:
(§1) Quantitative reverse transcription polymerase chain reaction (RT-PCR) was used to assess relative expression of cytokines (an average of 3 trials, each trial with a pool of 20 larvae/treatment) and cellular junction proteins (an average of 3 trials, each trial with a pool of 20 larvae/treatment), using elongation factor 1 a (EF1a) as the housekeeping gene control. […] UNC0642 reverses LPS induced reduction in the transcript levels of cellular junction proteins, namely occludin a, occludin b and ZO-1. UNC0642 also upregulates cellular junction protein transcript levels of occludin b, claudin 5a, claudin 5b and claudin 2, potentially improving vascular stability.
(§2) RNA extraction and cDNA synthesis. Wildtype zebrafish larvae (3 dpf) were exposed to Vehicle, LPS (27 μg/ml; LPS from Salmonella) or LPS+1 μM UNC0642 by static immersion for 24 h. Total RNA was extracted from these larvae (pool of 20 larvae/treatment) using the RNeasy extraction kit (Qiagen™, Mississauga, Ontario, Canada) and treated with DNase. The concentration of total RNA was determined spectrophotometrically at 260/280 nm using a NanoDrop™ spectrophotometer. […]
(§3) PCR conditions. […] The primers are not listed, since suitable primers will be readily apparent to the skilled person.

In assay [5] the test system is cellular junction protein transcript levels. The experiment in a line: Quantitative RT-PCR of cellular junction proteins in zebrafish sepsis model. The note with it: 3 dpf larvae, LPS 27 μg/ml (Salmonella) + 1 μM UNC0642, 24 h. Type of assay: in vivo.
Text: as §1, §2, §3

SMILES strings stand for the structures.

Regarding `COc1cc2c(NC3CCN(C(C)C)CC3)nc(N3CCC(F)(F)CC3)nc2cc1OCCCN1CCCC1` [UNC0642, 2-(4,4-Difluoropiperidin-1-yl)-6-methoxy-N-[1-(propan-2-yl)piperidin-4-yl]-7-(3-(pyrrolidin-1-yl)propoxy]quinazolin-4-amine], the “Reduction of LPS-induced ROS production” value in assay [1] worked out at 40%. For the same molecule, the “LPS-induced endothelial barrier dysfunction (increased dextran leakage)” value in assay [2] is recorded as “significantly mitigate”. Further, the “LPS induced increased H3K9me in venous endothelial cell nuclei” value in assay [3] was “rescues LPS induced increased H3K9me”. Also, the “LPS induced increases in transcript levels of pro-inflammatory cytokines IL-1, IL-6, TNFα and IL811” value in assay [4] is “significantly mitigates”. Further, in assay [5], the “LPS induced reduction in transcript levels of occludin a, occludin b and ZO-1” value is given as “reverses”; the “Transcript levels of occludin b, claudin 5a, claudin 5b and claudin 2” value was “upregulates”.
